Data from US20250230138A1, “COMPOUNDS HAVING A T-STRUCTURE FORMED BY AT LEAST FOUR CYCLES FOR USE IN THE TREATMENT OF CANCER AND OTHER INDICATIONS” (TheRas, Inc., priority 2022, published 2025).
Where two headings read alike, the source gives them in different places.

Legend:
[1] = molecular target: Cys242 in human PIK3CA (157-299) (Homo sapiens (Human), UniProt P42336); assay: Covalent modification assay using MALDI-TOF MS; type: biochemical; details: 4 h reaction time point
Method in brief: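 PIK3CA (157-299) at 3.33 μM or 1 μM in 20 mM HEPES, 150 mM NaCl, 2 mM MgCl2, pH 7.3 was incubated with compound (from 10 mM DMSO stocks) in the dark at room temperature for 15 min, 30 min, 2 h or 4 h. Linear-mode MALDI-TOF peak heights gave percent modification.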

pAKT in BT474 cells = assay: Cell-based pAKT HTRF assay in BT474 cells; details: BT474 cells, 4 hr incubation, read-out: pAKT inhibition IC50 in BT474 cells
Method in brief: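 Compound titration: 3 μM downward in 3-fold steps, nine points, 4 hr on cells. Detection: lysis, then d2 plus Eu Cryptate antibody mix, room-temperature incubation of 4–24 h, and time-resolved fluorescence read at 615 nm.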

[2] = 3.33 μM protein target, 1:7.5 protein to compound ratio (compounds 1-852)
[3] = 1 μM protein target, 1:5 protein to compound ratio (compounds 853-1279)
[4] = Homo sapiens, BT-474, Compounds 10-999

Sequence of Cys242 in human PIK3CA (157-299) (P42336 157-299): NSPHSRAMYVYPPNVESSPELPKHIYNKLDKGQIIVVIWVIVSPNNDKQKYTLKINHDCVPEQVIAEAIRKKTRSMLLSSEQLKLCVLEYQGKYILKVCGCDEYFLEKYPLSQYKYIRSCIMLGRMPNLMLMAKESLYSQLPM

C=CC(=O)N1CC(n2cc(-c3nc(-c4ccnc(N)c4)c4ccsc4c3-c3ccc(F)cc3OCCOC)cn2)C1 [Compound 234]
% of modification [1, 2]: A (percent of modification of PIK3CA protein ≥75%)
IC50 (pAKT in BT474 cells; Compounds 10-999): < 100 nM

C=CC(=O)N1Cc2cc(-c3nc(-c4cnn(C)c4)c4ccsc4c3-c3c(F)cc(F)cc3OCCOC)nn2C[C@H]1C [Compound 578]
% of modification [1, 2]: D (percent of modification <25%)
IC50 (pAKT in BT474 cells; Compounds 10-999): 1000 to 3000 nM

C=CC(=O)N1Cc2cc(-c3nc(-c4cnn(C)c4)c4ccsc4c3-c3c(F)cc(F)cc3OCCO)nn2C[C@H]1C [Compound 674]
% of modification [1, 2]: A (percent of modification of PIK3CA protein ≥75%)
IC50 (pAKT in BT474 cells; Compounds 10-999): < 100 nM

C=CC(=O)N1CCn2nc(-c3nc(N4CC5CCC(C4)N5C(C)=O)c4ccsc4c3-c3c(F)cc(F)cc3OCCOC)cc2C1C (stereo not drawn) [Compound 1064]
% of modification [1, 3]: C (25%≤percent of modification <50%)
IC50 (pAKT in BT474 cells; Compounds 1000-1279): 100 to 1000 nM

C=CC(=O)N1CCc2nc(-c3nc(-c4ccc5c(c4)CCC5N)c4ccsc4c3-c3ccc(F)cc3OCCOC)sc2C1 (stereo not drawn) [Compound 160]
% of modification [1, 2]: A (percent of modification of PIK3CA protein ≥75%)
IC50 (pAKT in BT474 cells; Compounds 10-999): < 100 nM

C=CC(=O)N1CC[C@H](n2cc(-c3nc(-c4cnn(C)c4)c4ccsc4c3-c3ccc(F)cc3OCC3CCNC(=O)C3)ccc2=O)C1 (stereo partly drawn) [Compound 213]
% of modification [1, 2]: A (percent of modification of PIK3CA protein ≥75%)
IC50 (pAKT in BT474 cells; Compounds 10-999): 100 to 1000 nM

C=CC(=O)N1CCn2nc(-c3nc(-c4cnc5c(c4)CN(C)CC5(C)C)c4ccsc4c3-c3c(F)cc(F)cc3OCCOC)cc2[C@H]1C [Compound 1161]
% of modification [1, 3]: A (percent of modification of PIK3CA protein ≥75%)
IC50 (pAKT in BT474 cells; Compounds 1000-1279): < 100 nM

C=CC(=O)N1CCn2nc(-c3nc(-c4ccc5c(c4)CN(C)C(=O)C5)c4ccsc4c3-c3c(F)cc(F)cc3OCCO)cc2[C@H]1C [Compound 973]
% of modification [1, 3]: A (percent of modification of PIK3CA protein ≥75%)
IC50 (pAKT in BT474 cells; Compounds 10-999): < 100 nM

C=CC(=O)N1CCc2nc(-c3nc(-c4cnc(N)nc4)c4ccsc4c3-c3ccc(F)cc3OCCOC)sc2C1 [Compound 133]
% of modification [1, 2]: A (percent of modification of PIK3CA protein ≥75%)
IC50 (pAKT in BT474 cells; Compounds 10-999): < 100 nM

C=CC(=O)N1CCn2nc(-c3nc(-c4ccc(C5(C(=O)NC)CC5)cc4)c4ccsc4c3-c3c(F)cc(F)cc3OCCOC)cc2[C@H]1C [Compound 1134]
% of modification [1, 3]: A (percent of modification of PIK3CA protein ≥75%)
IC50 (pAKT in BT474 cells; Compounds 1000-1279): < 100 nM

C=CC(=O)N1CCn2nc(-c3nc(-c4ccc(=O)[nH]c4)c4ccsc4c3-c3ccc(F)cc3OC(C)C)cc2C1 [Compound 248]
% of modification [1, 2]: A (percent of modification of PIK3CA protein ≥75%)
IC50 (pAKT in BT474 cells; Compounds 10-999): < 100 nM

C=CC(=O)N1Cc2cc(-c3nc(-c4cnc5c(c4)CN(C)C5=O)c4ccsc4c3-c3c(F)cc(F)cc3OC(C)C)nn2C[C@H]1C [Compound 513]
% of modification [1, 2]: A (percent of modification of PIK3CA protein ≥75%)
IC50 (pAKT in BT474 cells; Compounds 10-999): < 100 nM

C=CC(=O)N1CCn2nc(-c3nc(-c4ccc(N5CCN(C)CC5)nc4)c4ccsc4c3-c3c(F)cc(F)cc3OCCOC)cc2C1C (stereo not drawn) [Compound 930]
% of modification [1, 3]: A (percent of modification of PIK3CA protein ≥75%)
IC50 (pAKT in BT474 cells; Compounds 10-999): < 100 nM

C=CC(=O)N1CCc2nc(-c3nc(-c4ccc5c(c4)CS(=N)(=O)C5)c4ccsc4c3-c3ccc(F)cc3OCCOC)sc2C1 (stereo not drawn) [Compound 151, 1-[2-[7-[4-fluoro-2-(2-methoxyethoxy)phenyl]-4-(2-imino-2-oxo-1,3-dihydro-2-benzothiophen-5-yl)thieno[3,2-c]pyridin-6-yl]-6,7-dihydro-4H-thiazolo[5,4-c]pyridin-5-yl]prop-2-en-1-one]
% of modification [1, 2]: A (percent of modification of PIK3CA protein ≥75%)
IC50 (pAKT in BT474 cells; [4]): < 100 nM

C=CC(=O)N1CCn2nc(-c3nc(C4CCN(C(C)C)CC4)c4ccsc4c3-c3ccc(F)cc3OC(C)C)cc2C1 [Compound 240]
% of modification [1, 2]: A (percent of modification of PIK3CA protein ≥75%)
IC50 (pAKT in BT474 cells; Compounds 10-999): < 100 nM

C=CC(=O)N1CCn2nc(-c3nc(-c4ccc5c(c4)CCN(C(C)C)C5)c4ccsc4c3-c3ccc(F)cc3OC(F)F)cc2C1 [Compound 244]
% of modification [1, 2]: A (percent of modification of PIK3CA protein ≥75%)
IC50 (pAKT in BT474 cells; Compounds 10-999): < 100 nM

C=CC(=O)N1CCc2nc(-c3nc(-c4cnn(C5CNC5)c4)c4ccsc4c3-c3ccc(F)cc3OCCOC)sc2C1 [Compound 132, 1-[2-[4-[1-(azetidin-3-yl)pyrazol-4-yl]-7-[4-fluoro-2-(2-methoxyethoxy)phenyl]thieno[3,2-c]pyridin-6-yl]-6,7-dihydro-4H-thiazolo[5,4-c]pyridin-5-yl]prop-2-en-1-one]
% of modification [1, 2]: A (percent of modification of PIK3CA protein ≥75%)
IC50 (pAKT in BT474 cells; [4]): 100 to 1000 nM

C=CC(=O)N1CCc2nc(-c3nc(-c4ccc5c(c4)CCNC5)c4ccsc4c3-c3ccc(F)cc3OCCOC)n(C)c2C1 [Compound 100]
% of modification [1, 2]: A (percent of modification of PIK3CA protein ≥75%)
IC50 (pAKT in BT474 cells; Compounds 10-999): 100 to 1000 nM

C=CC(=O)N1CCc2ccc(-c3nc(-c4ccc5c(c4)CNC5=O)c4ccsc4c3-c3c(F)cc(F)cc3OCCOC)cc2C1 (single isomer, unassigned) [Compound 886]
% of modification [1, 3]: D (percent of modification <25%)
IC50 (pAKT in BT474 cells; Compounds 10-999): > 3000 nM

C=CC(=O)N1CCn2cc(-c3nc(-c4ccc(=O)n(C)c4)c4ccsc4c3-c3ccc(F)cc3OC(C)C)nc2C1 [Compound 272]
% of modification [1, 2]: A (percent of modification of PIK3CA protein ≥75%)
IC50 (pAKT in BT474 cells; Compounds 10-999): < 100 nM

C=CC(=O)N1Cc2cc(-c3nc(-c4cnn(C)c4)c4ccsc4c3-c3c(F)cc(F)cc3OC[C@@H](C)O)nn2[C@@H](C)C1 [Compound 581]
% of modification [1, 2]: D (percent of modification <25%)
IC50 (pAKT in BT474 cells; Compounds 10-999): 100 to 1000 nM

C=CC(=O)N1CCC(n2cc(-c3nc(-c4ccc5c(c4)CCNC5)c4ccsc4c3-c3c(F)cc(F)cc3OC(C)C)cn2)C1 (stereo not drawn) [Compound 410]
% of modification [1, 2]: A (percent of modification of PIK3CA protein ≥75%)
IC50 (pAKT in BT474 cells; Compounds 10-999): 100 to 1000 nM

C=CC(=O)N1CCn2nc(-c3nc(-c4cnc5c(cnn5C)c4)c4ccsc4c3-c3c(F)cc(F)cc3OCCO)cc2C1C (stereo not drawn) [Compound 877]
% of modification [1, 3]: A (percent of modification of PIK3CA protein ≥75%)
IC50 (pAKT in BT474 cells; Compounds 10-999): < 100 nM

C=CC(=O)N1CCc2nc(-c3nc(-c4ccc5c(c4)CCNC5)c4ccsc4c3-c3c(F)cc(F)cc3OC(C)C)sc2C1 [Compound 367]
% of modification [1, 2]: A (percent of modification of PIK3CA protein ≥75%)
IC50 (pAKT in BT474 cells; Compounds 10-999): 100 to 1000 nM

C=CC(=O)N1CCc2nc(-c3nc(-c4ccc5c(c4)CCN(C(C)C)C5)c4ccsc4c3-c3ccc(F)cc3OCCOC)sc2C1 [Compound 135]
% of modification [1, 2]: A (percent of modification of PIK3CA protein ≥75%)
IC50 (pAKT in BT474 cells; Compounds 10-999): < 100 nM

C=CC(=O)N1Cc2cc(-c3nc(-c4ccc5c(c4)CCN(C)C5)c4ccsc4c3-c3c(F)cc(F)cc3OCC)nn2C(C)C1 (stereo not drawn) [Compound 485]
% of modification [1, 2]: A (percent of modification of PIK3CA protein ≥75%)
IC50 (pAKT in BT474 cells; Compounds 10-999): < 100 nM

C=CC(=O)N1CCc2nc(-c3nc(-c4ccc5c(c4)CCNC5=O)c4ccsc4c3-c3c(F)cc(F)cc3OCCOC)sc2C1 [Compound 977]
% of modification [1, 3]: A (percent of modification of PIK3CA protein ≥75%)
IC50 (pAKT in BT474 cells; Compounds 10-999): 100 to 1000 nM

C=CC(=O)N1CCc2nc(-c3nc(-c4cnc5c(c4)CNC(=O)C5)c4ccsc4c3-c3c(F)cc(F)cc3OC(C)C)sc2C1 (single isomer, unassigned) [Compound 587]
% of modification [1, 2]: D (percent of modification <25%)
IC50 (pAKT in BT474 cells; Compounds 10-999): > 3000 nM

C=C(F)C(=O)N1CCn2nc(-c3nc(-c4ccc5c(c4)CCN(C)C5)c4ccsc4c3-c3ccc(F)cc3OCC(F)F)cc2C1 [Compound 325]
% of modification [1, 2]: B (50%<percent of modification <75%)
IC50 (pAKT in BT474 cells; Compounds 10-999): 100 to 1000 nM

C=CC(=O)N1CCC(n2cc(-c3nc(-c4cn(C)cn4)c4ccsc4c3-c3ccc(F)cc3OCCOC)cn2)CC1 [Compound 73]
% of modification [1, 2]: A (percent of modification of PIK3CA protein ≥75%)
IC50 (pAKT in BT474 cells; Compounds 10-999): 100 to 1000 nM

C=CC(=O)N1CCn2nc(-c3nc(-c4cnc(N(C)C)nc4)c4ccsc4c3-c3c(F)cc(F)cc3OCCOC)cc2C1C (stereo not drawn) [Compound 1037]
% of modification [1, 3]: A (percent of modification of PIK3CA protein ≥75%)
IC50 (pAKT in BT474 cells; Compounds 1000-1279): < 100 nM

C=CC(=O)N1CC(n2cc(-c3nc(N4CCC5(CC4)CS(=O)(=O)C5)c4ccsc4c3-c3ccc(F)cc3OCCOC)cn2)C1 [Compound 149]
% of modification [1, 2]: A (percent of modification of PIK3CA protein ≥75%)
IC50 (pAKT in BT474 cells; Compounds 10-999): 100 to 1000 nM

C=CC(=O)N1CCC(n2cc(-c3nc(-c4cnn5c4C(=O)NCC5)c4ccsc4c3-c3ccc(F)cc3OCCOC)cn2)CC1 [Compound 230]
% of modification [1, 2]: B (50%<percent of modification <75%)
IC50 (pAKT in BT474 cells; Compounds 10-999): 100 to 1000 nM
